Earlier results on one molecule are cited in US20260207657A1, “ANTISEPTIC COMPOSITIONS AND METHODS” (Solventum Intellectual Properties Company, priority 2022, published 2026).

The conditions of this data set: 25° C.

On to `II` [molecular iodine], for which the Solubility in water is 0.03 wt-%.
